We go through one compound from article PMC10888717, “Identification of Novel Non-Nucleoside Inhibitors of Zika Virus NS5 Protein Targeting MTase Activity” (International Journal of Molecular Sciences, 2024).

Structures are written as SMILES.

One data set concerns the target T1, ZIKV NS5 MTase (Zika virus, UniProt A0A024B7W1).
T1 construct: KJ776791.2, aa 4–278; His6 (N); made in house; host or cells: Escherichia coli T7 Express Iq
Nature of the data set: ZIKV NS5 MTase radioactive filter-binding assay (2′-O-MTase activity). Format: biochemical. The note with it: at least two experiments, read-out: IC50 (half-maximal inhibitory enzymatic concentration). On the procedure: Selected compounds were evaluated in enzymatic inhibition assays against both ZIKV and DENV 2′-O-MTase activity (For details, see Figure S3 in Supplementary Materials). The screening of compounds at a concentration of 50 µM highlighted a higher inhibitory activity against ZIKV MTase. We thus focused our efforts on ZIKV and determined the IC50 values against ZIKV MTase.
Expression and purification of ZIKV NS5 MTase: The coding sequence of the ZIKV NS5 MTase domain (strain H/PF/2013, GenBank accession no. KJ776791.2, aa 4–278) was synthesized by Genscript and cloned into a pQE30 vector (Qiagen, Hilden, Germany) with an N-terminal His6 tag. The protein was expressed and purified following the procedures described in Coutard et al..
Briefly, after expression in Escherichia coli T7 Express Iq (New England BioLabs) in Terrific Broth at 17 °C overnight, bacterial pellets were resuspended in lysis buffer (50 mM Tris-HCl [pH 8], 300 mM NaCl, 5% glycerol, 0.1% Triton, 10 μg/mL DNase I, 2 tablets of EDTA-free antiprotease cocktail [Roche] and 0.25 mg/mL lysozyme). Following cell lysis and clarification, the protein was purified by affinity on immobilized metal affinity chromatography (IMAC, His prep column [GE Healthcare]), followed by size exclusion chromatography (Superdex S75 HR 16/20 column [GE Healthcare]). The NS5-MTase was concentrated and stored at −20 °C after adding glycerol to a final concentration of 40%.
Filter-binding assay: The transfer of tritiated methyl from ^[3H]SAM onto RNA substrate was monitored by a filter-binding assay (FBA), performed according to the method described previously. FBA was carried out in a reaction mixture [40 mM Tris-HCl (pH 8.0), 1 mM DTT, 2 μM SAM, and 0.1 μM 3H-SAM (Perkin Elmer, Shelton, CT, USA)] in the presence of 0.7 μM synthetic ^7mGpppAC4 and ZIKV NS5 MTase (500 nM). The enzyme was first mixed with an increasing concentration of inhibitors, previously suspended in dimethyl sulfoxide (DMSO), before the addition of RNA substrate and SAM, and then incubated at 30 °C. The final DMSO concentration in reactions was 5%. Reaction mixtures were stopped after 30 min incubation by their 10-fold dilution in ice-cold water. Samples were transferred to diethylaminoethyl (DEAE) filtermat (Perkin Elmer, Shelton, CT, USA) using a Filtermat Harvester (Packard Instruments, Meriden, CT, USA). The RNA-retaining mats were washed twice with 10 mM ammonium formate pH 8.0, twice with water, and once with ethanol before drying. They were soaked with scintillation fluid (Perkin Elmer, Shelton, CT, USA), and 3H-methyl transfer to the RNA substrates was determined using a Wallac MicroBeta TriLux Liquid Scintillation Counter (Perkin Elmer, Shelton, CT, USA). For IC50 measurements, values were normalized and fitted with Prism (GraphPad software version 10.1.1) using the following equation: Y = 100/(1 + ((X/IC50) ^ Hillslope)).

The target in the next data set is DENV MTase. Briefly: DENV MTase enzymatic inhibition assay. Particulars: read-out: IC50 against DENV MTase. Format: biochemical, Dengue virus. The source says: Firstly, a pharmacophoric model was developed taking into consideration the most populated interactions (Figure 1C). The pharmacophore was used to perform a first screening, choosing molecules matching the pharmacophore features representing the interactions of the SAM adenine group and at least one of the two groups of features representing the interaction of SAM methionine moieties, with the aim of identifying compounds able to form interactions within both the adenine and the methionine subpockets of the SAM-binding site. The obtained results were then subjected to docking analysis using Glide XP, Glide SP, and GOLD (using the GoldScore fitness function). At the end of each docking procedure, a post-docking filter was applied to check whether the desired pharmacophoric interactions were maintained in the predicted binding modes of the docked compounds. Only the ligands for which a common binding mode matching the desired pharmacophore features was predicted by all the docking software were retained and then subjected to clustering and visual inspection. […]
Selected compounds were evaluated in enzymatic inhibition assays against both ZIKV and DENV 2′-O-MTase activity (For details, see Figure S3 in Supplementary Materials). […] We thus focused our efforts on ZIKV and determined the IC50 values against ZIKV MTase.

Another data set has as its system ZIKV. Briefly: ZIKV inhibitory viral plaque reduction assay in Vero E6 cells. Format: cell-based, Zika virus. Particulars: Zika virus, Vero C1008, read-out: IC50 ± SD (half-maximal inhibitory concentration, ZIKV plaque reduction). (In general: Plaque reduction counts the foci of infection that form in a cell layer.)
Data set [1] can be described thus: Cytotoxicity assay (MTT) on Vero E6 cells. Particulars: African green monkey; VERO E6 cells, MTT, 3 days; read-out: CC50 ± SD (half-maximal cytotoxic concentration). Format: cell-based. Here is the method:
Compounds characterized by the best anti-enzymatic activity were tested against ZIKV in cellular assays. VERO E6 cells were infected with ZIKV at a multiplicity of infection (M.O.I.) of 0.1, and their activities were evaluated by a plaque reduction assay three days post-infection. Ribavirin was used as a reference compound. As reported in Table 2, compound 1, identified in the first screening, was unable to inhibit viral replication up to a 100 μM concentration. […] The cytotoxicity of the series was determined on the same cell line. […] Their selectivity indexes were calculated as the ratio between CC50 and IC50 values; the results highlight their promising safety profile.
Monolayers of 2.5 × 10^4 Vero E6 cells per well were grown in flat-bottom 96-well culture plates and allowed to adhere overnight. Then, when the cell layers were confluent, the medium was removed, the wells were washed twice with PBS, treated with 100 µL of DMEM with 10 µL DMSO alone (cell positive control) or with various concentrations of anti-NS5 inhibitory compounds under study (compound final concentrations of 100, 10, 1, 0.1, and 0.01 μM), and incubated for 3 days at 37 °C in a CO2. After treatment, an MTT (3-(4,5-dimethylthiazol-2-yl)-2,5-diphenyltetrazolium bromide) kit (Roche, Milan, Italy) was used according to the supplier’s instructions, and the absorbance of each well was determined using a microplate spectrophotometer at a wavelength of 570 nm. Cytotoxicity was calculated by dividing the average optical density of treated samples by the average of DMSO-treated samples (cell positive control).

T1 sequence (A0A024B7W1 2524-2798): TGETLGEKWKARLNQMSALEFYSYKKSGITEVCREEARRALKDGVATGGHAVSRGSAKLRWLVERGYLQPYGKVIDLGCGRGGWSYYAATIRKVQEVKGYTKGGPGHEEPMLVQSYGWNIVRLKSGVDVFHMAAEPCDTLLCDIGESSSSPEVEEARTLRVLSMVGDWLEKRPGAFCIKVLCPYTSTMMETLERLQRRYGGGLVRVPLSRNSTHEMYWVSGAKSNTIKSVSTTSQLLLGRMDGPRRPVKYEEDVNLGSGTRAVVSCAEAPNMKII

With `O=C(Nc1ccc2c(c1)C(=O)NC2=O)c1cc2cc([N+](=O)[O-])ccc2s1` [Compound 1], the IC50 at ZIKV NS5 MTase is 53 µM; at DENV MTase it was 69 µM; in the data set with ZIKV it was more than 100 µM. Further, in data set [1], the CC50 at 3 days was more than 100 µM.
